From the supplement of paper PMC11061612

Legend:
[1] = compound: CC(=O)c1c(C)c2cnc(Nc3ccc(N4CCNCC4)cn3)nc2n(C2CCCC2)c1=O [Palbociclib]; conditions: max 10 µM
Outline: (§1)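 Plates with 1536 wells received cancer cell lines in 7.5 μl of DMEM/F12 or RPMI containing 10% FBS. After 24 hours at 37°C and 5% CO2, cells were dosed for 72 hours with final DMSO typically 0.2%, and viability was read by CellTiter-Glo 2.0 luminescence scaled between blank-well and DMSO-well means. The single-agent IC50 was taken from a logistic fit of the dose responses made with a non-linear mixed effects model, that logistic curve having two parameters.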

[2] = compound: CC(C)n1c(=O)n(C)c2cnc3cc(F)c(-c4ccc(OCCCN5CCCCC5)nc4)cc3c21 [AZD1390]; conditions: max 0.3 µM
Outline: as §1

[3] = compound: C1CC(C1)(C(=O)[O-])C(=O)[O-].N.N.[Pt+2] [Carboplatin]; conditions: max 10 µM
Outline: as §1

[4] = compound: C[C@@H](Nc1cc(F)cc(F)c1)c1cc(C(=O)N(C)C)cc2c(=O)cc(N3CCOCC3)oc12 [AZD8186]; conditions: max 10 µM
Outline: as §1

[5] = compound: Cc1cc2ncnn2cc1Nc1ncc2c(n1)n(C1CCOCC1)c(=O)n2C [AZD7648]; conditions: max 10 µM
Outline: as §1

[6] = compound: COc1cc(Nc2ncc3c(n2)-c2ccc(Cl)cc2C(c2c(F)cccc2OC)=NC3)ccc1C(=O)O [Alisertib]; conditions: max 10 µM
Outline: as §1

[7] = compound: CC1(C)CCC(CN2CCN(c3ccc(C(=O)NS(=O)(=O)c4ccc(NCC5CCOCC5)c([N+](=O)[O-])c4)c(Oc4cnc5[nH]ccc5c4)c3)CC2)=C(c2ccc(Cl)cc2)C1 [Venetoclax]; conditions: max 1 µM
Outline: as §1

[8] = compound: CC1=C(C(=CC=C1)Cl)NC(=O)C2=CN=C(S2)NC3=CC(=NC(=N3)C)N4CCN(CC4)CCO [Dasatinib]; conditions: max 2 µM
Outline: as §1

[9] = compound: C=CCn1c(=O)c2cnc(Nc3ccc(N4CCN(C)CC4)cc3)nc2n1-c1cccc(C(C)(C)O)n1 [AZD1775]; conditions: max 3 µM
Outline: as §1

[10] = compound: C[C@@H](Oc1cc(-c2cnn(C3CCNCC3)c2)cnc1N)c1c(Cl)ccc(F)c1Cl [Crizotinib]; conditions: max 10 µM
Outline: as §1

[11] = compound: O=c1[nH]cc(F)c(=O)[nH]1 [5-Fluorouracil]; conditions: max 20 µM
Outline: as §1

[12] = compound: CC(=O)Nc1cccc(-n2c(=O)n(C3CC3)c(=O)c3c(Nc4ccc(I)cc4F)n(C)c(=O)c(C)c32)c1 [Trametinib]; conditions: max 1 µM
Outline: as §1

[13] = compound: CN(C)CCCOc1ccc(-c2ccc3ncc4c(c3c2)n(C2CCOCC2)c(=O)n4C)cn1 [AZD0156]; conditions: max 3 µM
Outline: as §1

[14] = compound: CCc1c2c(nc3ccc(O)cc13)-c1cc3c(c(=O)n1C2)COC(=O)[C@]3(O)CC [SN-38]; conditions: max 0.3 µM
Outline: as §1

[15] = compound: NC1(c2ccc(-c3nc4ccn5c(=O)[nH]nc5c4cc3-c3ccccc3)cc2)CCC1 [MK-2206]; conditions: max 10 µM
Outline: as §1

[16] = compound: CCN(CCO)CCCOc1ccc2c(Nc3cc(CC(=O)Nc4cccc(F)c4)[nH]n3)ncnc2c1 [AZD2811]; conditions: max 1 µM
Outline: as §1

[17] = compound: C[C@@H](c1ccc2nccn2c1)n1nnc2ncc(-c3cnn(C)c3)nc21 [Savolitinib]; conditions: max 1 µM
Outline: as §1

[18] = compound: Cc1c2c(nn1C)CSCc1cc(n(C)n1)CSc1cc(c3ccccc3c1)OCCCc1c(C(=O)O)n(C)c3c-2c(Cl)ccc13 [AZD5991]; conditions: max 1 µM
Outline: as §1

[19] = compound: O=C(Nc1ccc2[nH]nc(-c3ccncc3)c2c1)[C@@H]1CCN(CC(=O)N2CCN(c3ccc(-c4ncccn4)cc3)CC2)C1; conditions: max 5 µM
Outline: as §1

[20] = compound: COc1cc2ncnc(Nc3ccc(F)c(Cl)c3)c2cc1OCCCN1CCOCC1 [Gefitinib]; conditions: max 10 µM
Outline: as §1

[21] = compound: COc1cccc(OCCCN)c1-c1cc(Nc2cnc(C#N)cn2)n[nH]1 [Prexasertib]; conditions: max 1 µM
Outline: as §1

[22] = compound: COc1cc([C@@H]2c3cc4c(cc3[C@@H](O[C@@H]3O[C@@H]5CO[C@@H](C)O[C@H]5[C@H](O)[C@H]3O)[C@H]3COC(=O)[C@H]23)OCO4)cc(OC)c1O [Etoposide]; conditions: max 10 µM
Outline: as §1

[23] = compound: CC(=O)O[C@H]1C(=O)[C@@]2(C)[C@H]([C@H](OC(=O)c3ccccc3)[C@]3(O)C[C@H](OC(=O)[C@H](O)[C@@H](NC(=O)c4ccccc4)c4ccccc4)C(C)=C1C3(C)C)[C@]1(OC(C)=O)CO[C@@H]1C[C@@H]2O [Paclitaxel]; conditions: max 3 µM
Outline: as §1

[24] = compound: COc1nnc2ccc(N3CCC(c4ccc(OCCN5CCN(C)C(=O)[C@H]5C)cc4)CC3)nn12 [AZD5153]; conditions: max 1 µM
Outline: as §1

[25] = compound: O=C(c1cc(Cc2n[nH]c(=O)c3ccccc23)ccc1F)N1CCN(C(=O)C2CC2)CC1 [Olaparib]; conditions: max 10 µM
Outline: as §1

[26] = compound: CS(=O)(=O)CCNCc1ccc(-c2ccc3ncnc(Nc4ccc(OCc5cccc(F)c5)c(Cl)c4)c3c2)o1 [Lapatinib]; conditions: max 10 µM
Outline: as §1

[27] = compound: Cn1cnc2c(F)c(Nc3ccc(Br)cc3Cl)c(C(=O)NOCCO)cc21 [Selumetinib]; conditions: max 10 µM
Outline: as §1

[28] = compound: C[C@@H]1COCCN1C2=NC(=NC(=C2)C3(CC3)[S@](=N)(=O)C)C4=C5C=CNC5=NC=C4 [AZD6738]; conditions: max 10 µM
Outline: as §1

[29] = compound: Cc1nc(-c2cn3c(n2)-c2ccc(-c4cnn(C(C)(C)C(N)=O)c4)cc2OCC3)n(C(C)C)n1 [Taselisib]; conditions: max 10 µM
Outline: as §1

[30] = compound: C1CN(CCC1(C(=O)N[C@@H](CCO)C2=CC=C(C=C2)Cl)N)C3=NC=NC4=C3C=CN4 [AZD5363]; conditions: max 10 µM
Outline: as §1

[31] = compound: CN(CC[C@H](CSC1=CC=CC=C1)NC2=C(C=C(C=C2)S(=O)(=O)NC(=O)C3=CC=C(C=C3)N4CCC(CC4)[C@H](C5=CC=CC=C5C6=CC=C(C=C6)Cl)O)S(=O)(=O)C(F)(F)F)CCO [AZD4320]; conditions: max 1 µM
Outline: as §1

[32] = compound: N#Cc1cnc(Nc2cc(NC[C@H]3CNCCO3)c(C(F)(F)F)cn2)cn1 [SRA737]; conditions: max 10 µM
Outline: as §1

[33] = compound: Nc1ccn([C@@H]2O[C@H](CO)[C@@H](O)C2(F)F)c(=O)n1 [Gemcitabine]; conditions: max 0.3 µM
Outline: as §1

[34] = compound: COc1cccc2c1C(=O)c1c(O)c3c(c(O)c1C2=O)C[C@@](O)(C(=O)CO)C[C@@H]3O[C@H]1C[C@H](N)[C@H](O)[C@H](C)O1 [Doxorubicin]; conditions: max 1 µM
Outline: as §1

[35] = compound: CC1=CN2[C@@H](C1)C=NC3=CC(=C(C=C3C2=O)OC)OCCCCCOC4=C(C=C5C(=C4)N=C[C@@H]6CC(=CN6C5=O)C)OC [SG3199]; conditions: max 0.001 µM
Outline: as §1

Row | Cell Line | IC50, cell viability 72 h [1] [µM] | IC50, cell viability 72 h [2] [µM] | IC50, cell viability 72 h [3] [µM] | IC50, cell viability 72 h [4] [µM] | IC50, cell viability 72 h [5] [µM] | IC50, cell viability 72 h [6] [µM] | IC50, cell viability 72 h [7] [µM] | IC50, cell viability 72 h [8] [µM] | IC50, cell viability 72 h [9] [µM] | IC50, cell viability 72 h [10] [µM] | IC50, cell viability 72 h [11] [µM] | IC50, cell viability 72 h [12] [µM] | IC50, cell viability 72 h [13] [µM] | IC50, cell viability 72 h [14] [µM] | IC50, cell viability 72 h [15] [µM] | IC50, cell viability 72 h [16] [µM] | IC50, cell viability 72 h [17] [µM] | IC50, cell viability 72 h [18] [µM] | IC50, cell viability 72 h [19] [µM] | IC50, cell viability 72 h [20] [µM] | IC50, cell viability 72 h [21] [µM] | IC50, cell viability 72 h [22] [µM] | IC50, cell viability 72 h [23] [µM] | IC50, cell viability 72 h [24] [µM] | IC50, cell viability 72 h [25] [µM] | IC50, cell viability 72 h [26] [µM] | IC50, cell viability 72 h [27] [µM] | IC50, cell viability 72 h [28] [µM] | IC50, cell viability 72 h [29] [µM] | IC50, cell viability 72 h [30] [µM] | IC50, cell viability 72 h [31] [µM] | IC50, cell viability 72 h [32] [µM] | IC50, cell viability 72 h [33] [µM] | IC50, cell viability 72 h [34] [µM] | IC50, cell viability 72 h [35] [µM]
1 | HCT-116 (Colorectal Carcinoma) | 8.69 | > 0.3 | > 10 | > 10 | > 10 | 1.07 | > 1 | > 2 | 1.96 | 2.76 | 10.6 | 0.0163 | > 3 | 0.019 | > 10 | > 1 | > 1 | > 1 | 0.129 | > 10 | 0.635 | 5.46 | 0.00324 | 0.244 | > 10 | > 10 | 2.5 | 6.97 | 2.17 | > 10 | > 1 | > 10 | 0.0131 | 0.218 | > 0.001
2 | HLE (Hepatocellular Carcinoma) | > 10 | > 0.3 | > 10 | > 10 | > 10 | 2.23 | > 1 | > 2 | 0.625 | > 10 | > 20 | > 1 | > 3 | 0.0143 | > 10 | > 1 | > 1 | > 1 | > 5 | > 10 | 0.107 | > 10 | 0.0603 | > 1 | > 10 | > 10 | > 10 | 4.91 | > 10 | > 10 | > 1 | > 10 | 0.114 | 0.426 | > 0.001
3 | MEG-01 (Chronic Myelogenous Leukemia) | > 10 | > 0.3 | > 10 | > 10 | > 10 | 3.12 | > 1 | < 0.002 | 0.292 | 0.828 | > 20 | 0.0389 | > 3 | 0.0744 | > 10 | 0.776 | > 1 | > 1 | 1.22 | > 10 | 0.00809 | 4.89 | 0.158 | 0.0832 | > 10 | > 10 | 3.41 | 0.812 | > 10 | > 10 | 0.309 | 1.18 | 0.0514 | 0.54 | > 0.001
4 | MSTO-211H (Mesothelioma) | > 10 | > 0.3 | > 10 | > 10 | > 10 | 3.84 | > 1 | > 2 | > 3 | > 10 | > 20 | 0.874 | > 3 | 0.047 | > 10 | > 1 | > 1 | > 1 | > 5 | > 10 | 0.0544 | 9.06 | 2.95 | > 1 | > 10 | > 10 | > 10 | 7.72 | > 10 | > 10 | > 1 | > 10 | 0.0219 | 0.857 | > 0.001
5 | NOMO-1 (Acute Myeloid Leukemia) | 6.66 | > 0.3 | > 10 | 9 | > 10 | 4.16 | 0.627 | > 2 | 0.215 | 8.6 | 2.21 | 0.00307 | > 3 | 0.00723 | > 10 | 0.905 | > 1 | 0.21 | 0.591 | > 10 | 0.00579 | 2.12 | 0.00709 | 0.0504 | > 10 | > 10 | 0.138 | 1.66 | 1.51 | > 10 | > 1 | 1.16 | 0.0101 | 0.542 | > 0.001
